Measurements taken from patent US20230226198A1, “Artemisinin Derivatives” (DA ZEN THERANOSTICS, INC., priority 2019, published 2023).
Read-outs that look alike come from different tables or passages of the source.

Key:
C4-2B MDVR cells = assay: Seahorse XF mitochondrial function (OCR/ECAR); assay type: cell-based, human; conditions: 5 uM, over 12 hours
Method: Example 5 C: To determine mitochondrial function of cancer cells (here C4-2B MDVR), the cells are treated with vehicle, DZ (5 uM), DHA (5 uM), and DZ-003 (5 uM) over 12 hours, and the oxygen consumption rate (OCR) from respiration and extracellular acidification rate (ECAR) from glycolysis of the live cells is determined in a metabolic chamber in a 24-well plate format using a Seahorse XF analyzer (Seahorse XFe24, Agilent, Calif.). Reagents (drugs/controls) are added to the wells just before start of the recording at time 0, and the effect of the drugs on the basal mitochondrial function is recorded by the analyzer for about 12 hours (720 minutes). All reagents used are Agilent reagents. Cells are seeded and cultured in Seahorse XF RPMI Medium, pH 7.4. The seeding rate is 8×10^5 for the cells to reach about 90% confluency within about 24 hours when the analysis is started. The protocol is essentially performed as per the standard protocol of the manufacturer, removing the medium, washing the cells once with XF Real-Time ATP Rate Assay Medium, then starting the measurement as per the instrument's pre-programming and subsequent real-time measurements of OCAR/ECAR. Preliminary experiments indicate that the THAD as described herein may have an increased effect compared to DZ3a.

[1] = system: Caki-1 cells (human clear cell renal cell carcinoma cells); assay: MTT cell viability / IC50 assay, Caki-1; assay type: cell-based
Method: (§1) Cell culture: In the following examples, unless otherwise specified, all cell lines are purchased from American Type Culture Collection and cultured in American Type Culture Collection (ATCC)-recommended media, with fetal bovine serum (FBS) to a final concentration of 10% and 1× penicillin/streptomycin at 37° C. with 5% CO2 in a cell culture incubator, unless otherwise specified. Unless otherwise specified, culture is 2D. Where culture is 3D, low attachment plates are used, with the same media. C4-2B (ATCC® CRL-3315™, human prostate cancer cells of epithelial morphology) parental cell line and drug-resistant cells derived therefrom) are cultured in RPMI-1640 with 10% FBS. MDVR cells (an Enzalutamide-resistant variety of C4-2B prostate cancer cells formed as described below) are cultured as indicated for the parental C4-2B cells. Caki-1 cells (human clear cell renal cell carcinoma cells) are cultured in ATCC-formulated McCoy's 5a Medium Modified (ATCC Catalog No. 30-2007) with 10% FBS. PC3 cells (ATCC® CRL-1435™, a human prostate cancer cell line of epithelial morphology initiated from a bone metastasis of a grade IV prostatic adenocarcinoma) are cultured in F-12K with 10% FBS. 22RV1 Prostate Cancer (PC) cells (ATCC® CRL-2505™, a human prostate carcinoma cell line of epithelial morphology) are cultured in RPMI-1640 with 10% FBS. DU145 cells (ATCC® HTB-81™, a human cell line derived from a prostate-originating brain metastase, not detectably hormone sensitive, not expressing prostate antigen; forms adenocarcinoma grade II in nude mice) are cultured in ATCC-formulated Eagle's Minimum Essential Medium (EMEM, Catalog No. 30-2003). H446 cells (ATCC® HTB-171™, a human small cell carcinoma SC lung cancer (SCLC) cell line derived from a metastatic site) are cultured in RPMI-1640 with 10% FBS. H358 cells (ATCC® CRL-5807™, a human non-small cell lung cancer (NSCLC) cell line that expresses protein and RNA of SP-A, the major lung surfactant associated protein, and produces tumors in athymic nude mice) are cultured in RPMI-1640 Medium with 10% FBS. BxPC3 cells (ATCC® CRL-1687™, an adenocarcinoma-derived pancreatic cancer cell line that expresses pancreas cancer specific antigen and carcinoembryonic antigen and forms tumors in nude mice) are cultured in RPMI-1640 with 10% FBS.
Example 1: A cell assay is performed exposing cells cultured as described above to various drugs indicated below for 24 hours unless otherwise indicated. Each of the cell lines is treated either with a THAD (e.g. DZ-DHA-ether, MI-148-bis-DHA), or for comparison, with the DHA mono-ester “DZ-DHA”; alternatively/additionally, DZ1 and/or unconjugated DHA may serve as comparants. For each cell line, the IC50 is determined for each drug in concentrations from 0 to 100 μM. […] In the controls (not shown in the figures), the cells are exposed to DMSO (vehicle) for a final concentration that equals the highest concentration of the drug tested, to a maximum concentration less than 0.1% v/v. 4 hours before culture end/SDS addition, 10 μL MTT (3-(4,5-Dimethyl-2-thiazolyl)-2,5-diphenyl-2H-tetrazolium bromide, Sigma-Aldrich) is added to wells containing the cells. At the end of culture, 100 μl 10% SDS is added and then the plate containing the cells is placed in a 37° C. cell culture incubator for 8 hours. The absorbance density of the supernatant is read on a 96-well microplate reader at wavelength 595 nm. The results of Caki-1 and MDRV are indicated in the table below along with preliminary results for further cancer cell lines (including, e.g., C4-2B, Abi-R, PC3, 22Rv1, DU145, H358, H446, BxPC3), and the corresponding curves are shown in FIG. 2A (Caki-1) and FIG. 2B (MDVR).

[2] = system: MDVR cells (Enzalutamide-resistant C4-2B prostate cancer cells); assay: MTT cell viability / IC50 assay, MDVR; assay type: cell-based; conditions: Homo sapiens
Method: as §1
Resistant prostate cancer cell lines MDVR and AbiR: MDVR cells are Enzalutamide-resistant cells, AbiR are Abiraterone acetate resistant cells, formed from parental C4-2B prostate cancer cells as follows. A cell assay is performed exposing cells cultured as described above to various drugs indicated below for 72 hours. Parental C4-2B cells are C4-2B non-resistant cells not previously exposed to cancer drugs. Drug-resistant C4-2B cells are created by prolonged exposure to the relevant drug, i.e. Enzalutamide for MDVR, and Abiraterone acetate for AbiR cells, at initially sub-lethal and gradually increasing concentrations until resistance is achieved.
Example 1: A cell assay is performed exposing cells cultured as described above to various drugs indicated below for 24 hours unless otherwise indicated. Each of the cell lines is treated either with a THAD (e.g. DZ-DHA-ether, MI-148-bis-DHA), or for comparison, with the DHA mono-ester “DZ-DHA”; alternatively/additionally, DZ1 and/or unconjugated DHA may serve as comparants. For each cell line, the IC50 is determined for each drug in concentrations from 0 to 100 μM. […] In the controls (not shown in the figures), the cells are exposed to DMSO (vehicle) for a final concentration that equals the highest concentration of the drug tested, to a maximum concentration less than 0.1% v/v. 4 hours before culture end/SDS addition, 10 μL MTT (3-(4,5-Dimethyl-2-thiazolyl)-2,5-diphenyl-2H-tetrazolium bromide, Sigma-Aldrich) is added to wells containing the cells. At the end of culture, 100 μl 10% SDS is added and then the plate containing the cells is placed in a 37° C. cell culture incubator for 8 hours. […]

[3] = system: L858R/T790M EGFR versus wild-type EGFR; conditions: inhibiting phosphorylation of EGFR in cell lines; cited from earlier work
[4] = Caki-1, 24 hours, relative IC50, read-out: IC50
[5] = Caki-1, unit inferred, read-out: IC50 (FIG. 2A description)
[6] = ENZ-resistant C4-2B cells (MDVR), unit inferred, read-out: IC50 (FIG. 2B description)
[7] = MDVR, 24 hours, relative IC50, read-out: IC50

CC1(C)C(/C=C/C2=C(Cl)C(=C/C=C3/N(CCCCCC(=O)O)c4ccccc4C3(C)C)/CCC2)=[N+](CCCCS(=O)(=O)[O-])c2ccccc21 [DZ1]
lowering of OCR (in words) (C4-2B MDVR cells): drop much less

C[C@@H]1CC[C@H]2[C@@H](C)C(OCCNC(=O)CCCCCN3/C(=C/C=C4\CCCC(/C=C/C5=[N+](CCCCS(=O)(=O)[O-])c6ccccc6C5(C)C)=C4Cl)C(C)(C)c4ccccc43)O[C@@H]3O[C@]4(C)CC[C@@H]1[C@]32OO4 (stereo partly shown) [DZ-DHA-ether]
IC50 [1, 4]: 1420 nM
IC50 [1, 5]: 500 to 1500 nM
IC50 [2, 6]: 3470 nM
IC50 [2, 7]: < 3470 nM

C[C@@H]1CC[C@H]2[C@@H](C)C(OC(=O)CCCCCN3/C(=C/C=C4\CCCC(/C=C/C5=[N+](CCCCCC(=O)OC6O[C@@H]7O[C@]8(C)CC[C@H]9[C@H](C)CC[C@@H]([C@H]6C)[C@@]79OO8)c6ccccc6C5(C)C)=C4Cl)C(C)(C)c4ccccc43)O[C@@H]3O[C@]4(C)CC[C@@H]1[C@]32OO4 (stereo partly shown) [MHI-148-bis-DHA]
IC50 [1, 4]: 710 nM
IC50 [1, 5]: 500 to 1500 nM
IC50 [2, 6]: < 1000 nM
IC50 [2, 7]: 860 nM

C=CC(=O)Nc1cc(Nc2nccc(-c3cn(C)c4ccccc34)n2)c(OC)cc1N(C)CCN(C)C [Osimertinib]
potency against L858R/T790M relative to wild-type EGFR [3]: 100-200 times
